Literature values in patent US7579326B2, “Gene switch systems employing regulators with decreased dimerization” (Genetronics, Inc., priority 2000, dated 2009).

Assays:
[1] = rats
[2] = biological target: palindromic 17-mer GAL-4 DNA binding site

half-life [1] [h] | Kd [2] [nM] | Compound
1 |  | CC#C[C@]1(O)CC[C@H]2[C@@H]3CCC4=CC(=O)CCC4=C3[C@@H](c3ccc(N(C)C)cc3)C[C@@]21C [MFP, 11β-(4-dimethylaminophenyl)-17β-hydroxy-17α-propynyl-4,9-estradiene-3-one]
 | 3 | GAL-4, residues 1-100: yeast GAL-4 DNA binding domain fragment, residues 1-100
